US8173843B2, “Amphiphilic derivatives of α-C-phenyl-N-tert-butylnitrone” (TS Pharma, priority 2006, dated 2012)

Columns and labels:
[1] = system: Sprague-Dawley rat embryo cortex cell cultures; experiment: Hydrogen peroxide-induced apoptotic cell death, viability of cortex cell cultures; format: cell-based; settings: compound at 10 μM; hydrogen peroxide 50 to 200 μM; preliminary results
Protocol: (§1) The biological tests were carried out according to the procedures described in Journal of Neurochemistry, 2005, 95, 962-973. In order to evaluate the potentialities of these novel derivatives, we measured the ability of compound 10 to reduce and prevent apoptotic cell death phenomena. Hydrogen peroxide is very widely used as an apoptosis inducer in many cell models. Thus, the viability of Sprague-Dawley rat embryo cortex cell cultures is greatly impaired after treatment with hydrogen peroxide at concentrations of 50 to 200 μM. […] These same cultures were also subjected to a mitochondria-selective oxidative stress inducer, doxorubicin (Kotamraju S.; Konorev E. A.; Joseph J.; Kalyanaraman B. J. Biol. Chem. 2000, 275, 33 585-33 592). The observations are the same as for the induction with hydrogen peroxide. […] These preliminary results underline the great ability of compound 10 to prevent apoptosis phenomena induced at varying cell levels. […] A dysfunction of the mitochondrion, the central organelle in the control of apoptosis is involved in a very wide variety of pathological conditions. The anti-apoptotic properties of derivative 10 combined with its incorporation into the mitochondrion make it possible to envision its use in the fields mentioned above.

[2] = system: Sprague-Dawley rat embryo cortex cell cultures; experiment: Doxorubicin (mitochondria-selective oxidative stress inducer)-induced cell death, viability of cortex cell cultures; format: cell-based; settings: doxorubicin-induced mitochondrial oxidative stress; preliminary results
Protocol: as §1

[3] = oxidative aging tests; Poeggeler et al. 2005; cited from earlier work
[4] = literature; cited from earlier work
gerbils = settings: after injection in gerbils; Oliver et al. 1990; cited from earlier work

SMILES | restoration of viability of cultures after hydrogen peroxide treatment [1] | protection against cell death / cell viability under doxorubicin [2] | biological activity compared with PBN [3] | neuroprotective activity compared with PBN [4] | damage caused by cerebral ischemia (gerbils)
CCCCCCCC(=O)NCc1ccc(/C=[N+](\[O-])C(C)(C)CNC(=O)C(O)[C@H](O)[C@H](O[C@@H]2OC(CO)[C@H](O)C(O)C2O)C(O)CO)cc1 (stereo partly shown) [Compound 10] | completely restore the viability | allows the cell viability to be completely maintained | – | – | –
CCCCCCCC(=O)NCC(C)(C)[N+]([O-])=Cc1ccc(CNC(=O)[C@H](OC(C)=O)[C@@H](OC(C)=O)[C@H](O[C@@H]2O[C@H](COC(C)=O)[C@H](OC(C)=O)[C@H](OC(C)=O)[C@H]2OC(C)=O)[C@@H](COC(C)=O)OC(C)=O)cc1 [LPBNAH, N-[4-(octa-O-acetyllactobionamidomethylene)benzylidene]-N-[1,1-dimethyl-2-(N-octanoyl)amido]ethylamine N-oxide] | – | – | biological activity greater than that of PBN | – | –
CC(C)(C)[N+]([O-])=Cc1ccc(S(=O)(=O)[O-])cc1S(=O)(=O)[O-].[Na+].[Na+] [NXY-059] | – | – | – | neuroprotective activity greater than PBN | –
CC(C)(C)[N+]([O-])=Cc1ccccc1 [PBN, α-C-phenyl-N-tert-butylnitrone] | very incompletely restore the viability | only a partial protection against cell death | – | – | decrease in the damage caused by cerebral ischemia
